Reference: patent US10406094B2, “Composition for fast dry of hair” (The Procter & Gamble Company, priority 2016, dated 2019)

assay: DVS measurement: % reduction in amount of water absorbed by treated hair; parameters: % reduction in water absorbed: concentration or dose not given beside the values; conditions: Molecular Class II
Description: The leave-on treatment compositions are prepared by adding the Moisture Control Materials and perfume, if needed, into a 50:50 ethanol/water carrier and stirred until complete dissolution. The solution pH is adjusted using sodium hydroxide (50% w/w) to a final pH of 4.0-4.2.
The hair is allowed to air dry and then analyzed using the DVS method described above. The experiment is repeated for a dosage of 0.50 g of solution per g of hair. The hair in this case is also assessed by expert graders, as described below, in addition to the DVS analysis.
An amount of 25-30 mg of hair with length of approximately 1 cm is weighed and hold for equilibration at 0% RH for 16 hours. After the 16-hour period, the RH is increased to 10% and maintained at this level for 6 hours. Then, the RH is increased by 10% after every 6 hours interval until it reaches 90% RH. The % reduction in amount of water absorbed is calculated as follows:
A=Amount of water absorbed by the hair treated with composition containing the Moisture Control Material
B=Amount of water absorbed by the hair treated with control composition (only carrier) containing no Moisture Control Material % reduction in amount of water absorbed=[(B−A)×100]/B

Molecule	% reduction in water absorbed [%]
CCCCCCCCC(CO)CCCCCC (stereo not drawn) [2-Hexyl-1-decanol]	11
O=C(OCCO)c1ccccc1O [2-Hydroxyethyl salicylate]	10
CCOC(=O)c1cc(O)c(O)c(O)c1 [Ethyl gallate]	17
CCCCC/C=C\C/C=C\CCCCCCCC(=O)OCC [Ethyl linoleate]	8
CCCCCCCC/C=C\CCCCCCCC(=O)OCC(O)CO (stereo not drawn) [Glyceryl monooleate]	5
CC(C)C(=O)O [Isobutyric acid]	5
CCCCCCCCCCCCCC(=O)OC(C)C [Isopropyl myristate]	12
CC(C)CCCCCCCCCCCCCCCOC(=O)CCCCCCCCCCCCCCC(C)C [Isostearyl isostearate]	11
CCCCCCCC/C=C\CCCCCCCC(=O)O [Oleic Acid]	14
C/C(=C\CO)CCC[C@H](C)CCC[C@H](C)CCCC(C)C [Phytol]	14
CCCCCC[C@@H](O)C/C=C\CCCCCCCC(=O)O [Ricinoleic acid]	8.8
Sorbitan caprylate	11

same assay, conditions: material at 1% wt/vol

Molecule	% Reduction in amount of water absorbed [%]
O=C(O)c1ccc(O)cc1O [2,4-Dihydroxybenzoic acid]	30
O=C(O)c1cc(O)c(C(=O)O)cc1O [2,5 Dihydroxyterephthalic acid]	18
O=C(O)c1cc(O)ccc1O [2,5-Dihydroxybenzoic acid]	27
O=C(O)c1c(O)cccc1O [2,6-Dihydroxybenzoic acid]	35
Nc1ccccc1O [2-Aminophenol]	14
O=C(O)c1ccc(O)c(O)c1 [3,4-Dihydroxybenzoic acid]	20
O=C(O)c1cc(Cl)c(O)c(Cl)c1 [3,5-Dichloro-4-hydroxybenzoic acid]	15
O=C(O)c1cc(O)cc(O)c1 [3,5-Dihydroxybenzoic acid]	15
Nc1cccc(C(=O)O)c1 [3-Aminobenzoic acid]	12
Nc1cccc(O)c1 [3-Aminophenol]	14
O=C(O)c1ccc(O)c(Cl)c1 [3-Chloro-4-hydroxybenzoic acid]	11
Cl.Nc1cccc(O)c1 [3-Hydroxyanilinium chloride]	16
O=C(O)c1cccc(O)c1 [3-Hydroxybenzoic Acid]	20
Nc1ccc(C(=O)O)cc1 [4-Aminobenzoic acid]	12
Nc1ccc(O)cc1 [4-Aminophenol]	10
O=S(=O)(O)c1ccc(O)cc1 [4-Hydroxybenzenesulphonic acid]	26
O=C(O)c1cc(Cl)ccc1O [5-Chlorosalicylic acid]	28
O=C(O)c1cc(O)c(O)c(O)c1 [Gallic acid]	15
O=C(O)CNc1ccc(O)cc1 [N-4-Hydroxyphenylglycine]	15
COc1cc(/C=C/C(=O)O)ccc1O [Trans-Ferulic Acid]	6
O=C(O)/C=C/c1ccc(O)cc1 [p-Coumaric acid]	8.8
